Patent publication US20070082880A1 (priority 2005, published 2007)

Target: T1, human PKCθ full length enzyme (Homo sapiens, UniProt Q04759)
T1 construct: human PKCθ full length enzyme (Panvera Catalog No. P2996); purchased Panvera P2996
Assay: PKCθ IMAP Assay
Format: biochemical
Settings: average value when one or more samples were tested; ATP 6 uM, PKCθ 1 nM
Method: The materials used include the following: human PKCθ full length enzyme (Panvera Catalog No. P2996); substrate peptide: 5FAM-[…]-OH (Molecular Devices, RP7032); ATP (Sigma Cat # A2383); DTT (Pierce, 20291); 5× kinase reaction buffer (Molecular Devices, R7209); 5× binding buffer A (Molecular Devices, R7282), 5× binding buffer B (Molecular Devices, R7209); IMAP Beads (Molecular Devices, R7284); and 384-well plates (Corning Costar, 3710).
The reaction buffer was prepared by diluting the 5× stock reaction buffer and adding DTT to obtain a concentration of 3.0 mM. The binding buffer was prepared by diluting the 5× binding buffer A. A master mix solution was prepared using a 90% dilution of the reaction buffer containing 2×ATP (12 uM) and 2× peptide ([…]). […] The final concentration of compound was 2× and 10% DMSO. DMSO was added to the rest of the master mix to increase the concentration to 10%. 10 ul of the master mix containing 10% DMSO was added to the rest of the wells on the plate except the 2nd column. 20 ul was transferred from the first column to the 2nd column. The compounds were serially diluted in 2:1 ratio starting from the 2nd column. A 2× (2 nM) PKCθ solution was made in the reaction buffer. 10 ul of the PKCθ solution was added to every well to achieve these final concentrations: PKCθ—1 nM; ATP—6 uM; peptide—100 nM; DMSO—5%. Samples were incubated for 25 minutes at room temperature. The binding reagent was prepared by diluting the beads in 1× binding buffer to 800:1. 50 ul of the binding reagent was added to every well and incubated for 20 minutes. FP was measured using Envision2100 (PerkinElmer Life Sciences). Wells with no ATPs and wells with no enzymes were used as controls.

T1 sequence (Q04759 whole entry): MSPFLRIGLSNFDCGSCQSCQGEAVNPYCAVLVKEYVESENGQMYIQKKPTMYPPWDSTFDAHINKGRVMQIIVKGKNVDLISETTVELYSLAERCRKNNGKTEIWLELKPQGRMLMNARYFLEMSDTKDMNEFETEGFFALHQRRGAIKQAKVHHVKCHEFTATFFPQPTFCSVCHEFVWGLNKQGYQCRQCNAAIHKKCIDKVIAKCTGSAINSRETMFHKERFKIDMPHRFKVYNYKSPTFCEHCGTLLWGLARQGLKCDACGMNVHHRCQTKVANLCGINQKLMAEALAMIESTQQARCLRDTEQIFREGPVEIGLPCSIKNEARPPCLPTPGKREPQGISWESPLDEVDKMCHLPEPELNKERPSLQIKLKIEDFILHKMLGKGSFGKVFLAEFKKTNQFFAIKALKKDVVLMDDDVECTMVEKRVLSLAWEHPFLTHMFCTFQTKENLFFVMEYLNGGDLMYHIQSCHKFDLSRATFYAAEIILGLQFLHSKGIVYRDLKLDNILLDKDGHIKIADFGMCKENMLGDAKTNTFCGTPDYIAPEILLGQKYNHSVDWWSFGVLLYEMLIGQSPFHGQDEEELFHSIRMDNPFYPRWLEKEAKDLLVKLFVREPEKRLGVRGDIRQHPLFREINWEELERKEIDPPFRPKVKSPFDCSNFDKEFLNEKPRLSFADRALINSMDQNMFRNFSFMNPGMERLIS

SMILES | IC50 [nM]
CN(C)Cc1cccc(C#Cc2cc3c(Nc4cccc5[nH]ccc45)c(C#N)cnc3s2)n1 [Compound 219, 2-({6-[(dimethylamino)methyl]pyridin-2-yl}ethynyl)-4-(1H-indol-4-ylamino)thieno[2,3-b]pyridine-5-carbonitrile] | 84
Cc1c(Nc2c(C#N)cnc3sc(-c4cnc5ccccc5c4)cc23)ccc2[nH]ccc12 [Compound 380, 4-[(4-methyl-1H-indol-5-yl)amino]-2-quinolin-3-ylthieno[2,3-b]pyridine-5-carbonitrile] | 16
Cc1c(Nc2c(C#N)cnc3sc(-c4cccc(OC[C@H](C)O)c4)cc23)ccc2[nH]ccc12 [Compound 483, 2-(3-{[(2S)-2-hydroxypropyl]-oxy}phenyl)-4-[(4-methyl-1H-indol-5-yl)amino]thieno[2,3-b]pyridine-5-carbonitrile] | 59
Cc1c(Nc2c(C#N)cnc3sc(-c4ccc(S(=O)(=O)NCCN(C)C)cc4)cc23)ccc2[nH]ccc12 [Compound 345, 4-{5-cyano-4-[(4-methyl-1H-indol-5-yl)amino]thieno[2,3-b]pyridin-2-yl}-N-[2-(dimethylamino)ethyl]benzenesulfonamide] | 31
CCCOc1c(CN(C)C)cc(C)cc1-c1cc2c(Nc3ccc4[nH]ccc4c3C)c(C#N)cnc2s1 [Compound 455, 2-{3-[(dimethylamino)methyl]-5-methyl-2-propoxyphenyl}-4-[(4-methyl-1H-indol-5-yl)amino]thieno[2,3-b]pyridine-5-carbonitrile] | 29
Cc1c(Nc2c(C#N)cnc3sc(C(=O)N4CCN(C)CC4)cc23)ccc2[nH]ccc12 [Compound 256, 4-[(4-methyl-1H-indol-5-yl)amino]-2-[(4-methylpiperazin-1-yl)carbonyl]thieno[2,3-b]pyridine-5-carbonitrile] | 334
Cc1c(Nc2c(C#N)cnc3sc(-c4ccc(O)cc4)cc23)ccc2[nH]ccc12 [Compound 441, 2-(4-hydroxyphenyl)-4-[(4-methyl-1H-indol-5-yl)amino]thieno[2,3-b]pyridine-5-carbonitrile] | 29
Cc1c(Nc2c(C#N)cnc3sc(-c4ccncc4)cc23)ccc2[nH]ccc12 [Compound 439, 4-[(4-methyl-1H-indol-5-yl)amino]-2-pyridin-4-ylthieno[2,3-b]pyridine-5-carbonitrile] | 13
COCCN(C)Cc1cccc(-c2cc3c(Nc4ccc5[nH]ccc5c4)c(C#N)cnc3s2)c1 [Compound 162, 4-(1H-indol-5-ylamino)-2-(3-{[(2-methoxyethyl)(methyl)amino]methyl}phenyl)thieno[2,3-b]pyridine-5-carbonitrile] | 270
COc1ccc(C=O)c(-c2cc3c(Nc4ccc5[nH]ccc5c4C)c(C#N)cnc3s2)c1 [Compound 514, 2-(2-formyl-5-methoxyphenyl)-4-[(4-methyl-1H-indol-5-yl)amino]thieno[2,3-b]pyridine-5-carbonitrile] | 71
Cc1c(Nc2c(C#N)cnc3sc(-c4cccc(C(=O)N5CCCC5)c4)cc23)ccc2[nH]ccc12 [Compound 423, 4-[(4-methyl-1H-indol-5-yl)amino]-2-[3-(pyrrolidin-1-ylcarbonyl)phenyl]thieno[2,3-b]pyridine-5-carbonitrile] | 58
Cc1c(Nc2c(C#N)cnc3sc(/C=C/C(=O)N4CC[C@H](N(C)C)C4)cc23)ccc2[nH]ccc12 [Compound 301, 2-{(1E)-3-[(3S)-3-(dimethylamino)pyrrolidin-1-yl]-3-oxoprop-1-en-1-yl}-4-[(4-methyl-1H-indol-5-yl)amino]thieno[2,3-b]pyridine-5-carbonitrile] | 171
Cc1c(Nc2c(C#N)cnc3sc(-c4ccccc4O)cc23)ccc2[nH]ccc12 [Compound 442, 2-(2-hydroxyphenyl)-4-[(4-methyl-1H-indol-5-yl)amino]thieno[2,3-b]pyridine-5-carbonitrile] | 273
Cc1c(Nc2c(C#N)cnc3sc(-c4cccc(S(C)(=O)=O)c4)cc23)ccc2[nH]ccc12 [Compound 375, 4-[(4-methyl-1H-indol-5-yl)amino]-2-[3-(methylsulfonyl)phenyl]thieno[2,3-b]pyridine-5-carbonitrile] | 41
CN1CCN(C(=O)/C=C/c2cc3c(Nc4ccc5[nH]ccc5c4)c(C#N)cnc3s2)CC1 [Compound 290, 4-(1H-indol-5-ylamino)-2-[(1E)-3-(4-methylpiperazin-1-yl)-3-oxoprop-1-en-1-yl]thieno[2,3-b]pyridine-5-carbonitrile] | 330
Cc1c(Nc2c(C#N)cnc3sc(-c4cncc(C=O)c4)cc23)ccc2[nH]ccc12 [Compound 387, 2-(5-formylpyridin-3-yl)-4-[(4-methyl-1H-indol-5-yl)amino]thieno[2,3-b]pyridin-5-carbonitrile] | 2

SMILES | IC50 [nM]
Cc1c(Nc2c(C#N)cnc3sc(/C=C/CN4CCCC4)cc23)ccc2[nH]ccc12 [Compound 276, 4-[(4-methyl-1H-indol-5-yl)amino]-2-[(1E)-3-pyrrolidin-1-ylprop-1-en-1-yl]thieno[2,3-b]pyridine-5-carbonitrile] | 23
Cc1c(Nc2c(C#N)cnc3sc(/C=C/CN4CCOCC4)cc23)ccc2[nH]ccc12 [Compound 275, 4-[(4-methyl-1H-indol-5-yl)amino]-2-[(1E)-3-morpholin-4-ylprop-1-en-1-yl]thieno[2,3-b]pyridine-5-carbonitrile] | 56
Cc1c(Nc2c(C#N)cnc3sc(-c4ccccc4S(=O)(=O)N(C)C)cc23)ccc2[nH]ccc12 [Compound 238, 2-{5-cyano-4-[(4-methyl-1H-indol-5-yl)amino]thieno[2,3-b]pyridin-2-yl}-N,N-dimethylbenzenesulfonamide] | 440
Cc1c(Nc2c(C#N)cnc3sc(-c4ccc5cc[nH]c5c4)cc23)ccc2[nH]ccc12 [Compound 521, 2-(1H-indol-6-yl)-4-[(4-methyl-1H-indol-5-yl)amino]thieno[2,3-b]pyridine-5-carbonitrile] | 37
Cc1c(Nc2c(C#N)cnc3sc(-c4ccc5[nH]ccc5c4)cc23)ccc2[nH]ccc12 [Compound 520, 2-(1H-indol-5-yl)-4-[(4-methyl-1H-indol-5-yl)amino]thieno[2,3-b]pyridine-5-carbonitrile] | 74
Cc1c(Nc2c(C#N)cnc3sc(-c4cc(C=O)ccc4F)cc23)ccc2[nH]ccc12 [Compound 389, 2-(2-fluoro-5-formylphenyl)-4-[(4-methyl-1H-indol-5-yl)amino]thieno[2,3-b]pyridine-5-carbonitrile] | 18
CN1CCN(C(=O)c2cc3c(Nc4ccc5[nH]ccc5c4)c(C#N)cnc3s2)CC1 [Compound 253, 4-(1H-indol-5-ylamino)-2-[(4-methylpiperazin-1-yl)carbonyl]thieno[2,3-b]pyridine-5-carbonitrile] | 2280
CN1CCN(C/C=C/c2cc3c(Nc4ccc5[nH]ccc5c4)c(C#N)cnc3s2)CC1 [Compound 277, 4-(1H-indol-5-ylamino)-2-[(1E)-3-(4-methylpiperazin-1-yl)prop-1-en-1-yl]thieno[2,3-b]pyridine-5-carbonitrile] | 304
COCCNC(=O)/C=C/c1cc2c(Nc3ccc4[nH]ccc4c3C)c(C#N)cnc2s1 [Compound 308, (2E)-3-{5-cyano-4-[(4-methyl-1H-indol-5-yl)amino]thieno[2,3-b]pyridin-2-yl}-N-(2-methoxyethyl)acrylamide] | 48
Cc1c(Nc2c(C#N)cnc3sc(-c4cccc(N(C)CCN(C)C)c4)cc23)ccc2[nH]ccc12 [Compound 390, 2-(3-{[2-(dimethylamino)ethyl](methyl)amino}phenyl)-4-[(4-methyl-1H-indol-5-yl)amino]thieno[2,3-b]pyridine-5-carbonitrile] | 43
Cc1c(Nc2c(C#N)cnc3sc(-c4ccc(S(C)(=O)=O)cc4)cc23)ccc2[nH]ccc12 [Compound 376, 4-[(4-methyl-1H-indol-5-yl)amino]-2-[4-(methylsulfonyl)phenyl]thieno[2,3-b]pyridine-5-carbonitrile] | 26
Cc1c(Nc2c(C#N)cnc3sc(-c4ccc(OCCCN(C)C)nc4)cc23)ccc2[nH]ccc12 [Compound 350, 2-{6-[3-(dimethylamino)propoxy]pyridin-3-yl}-4-[(4-methyl-1H-indol-5-yl)amino]thieno[2,3-b]pyridine-5-carbonitrile] | 34
Cc1c(Nc2c(C#N)cnc3sc(-c4cncnc4)cc23)ccc2[nH]ccc12 [Compound 506, 4-[(4-methyl-1H-indol-5-yl)amino]-2-pyrimidin-5-ylthieno[2,3-b]pyridine-5-carbonitrile] | 17
Cc1c(Nc2c(C#N)cnc3sc(-c4ccnn4C)cc23)ccc2[nH]ccc12 [Compound 527, 4-[(4-methyl-1H-indol-5-yl)amino]-2-(1-methyl-1H-pyrazol-5-yl)thieno[2,3-b]pyridine-5-carbonitrile] | 35
N#Cc1cnc2sc(-c3cscc3C=O)cc2c1Nc1ccc2[nH]ccc2c1 [Compound 336, 2-(4-formyl-3-thienyl)-4-(1H-indol-5-ylamino)thieno[2,3-b]pyridine-5-carbonitrile] | 51
